Experimental data reported in US9556145B2, “2-pyridyloxy-4-ester orexin receptor antagonists” (MERCK SHARP & DOHME CORP., priority 2012, dated 2017).

Legend:
[1] = target: human orexin-2 receptor (Homo sapiens (Human), UniProt O43614); experiment: FLIPR Ca2+ Flux Assay, orexin-2 receptor; type: cell-based; settings: CHO cells expressing the receptor; agonist 70 pM Ala-6,12 orexin-A; read-out: hOX2R FLIPR IC50
Procedure: The utility of the compounds in accordance with the present invention as orexin receptor OX1R and/or OX2R antagonists may be readily determined without undue experimentation by methodology well known in the art, including the “FLIPR Ca^2+ Flux Assay” (Okumura et al., Biochem. Biophys. Res. Comm. 280:976-981, 2001). In a typical experiment the OX1 and OX2 receptor antagonistic activity of the compounds of the present invention was determined in accordance with the following experimental method. For intracellular calcium measurements, Chinese hamster ovary (CHO) cells expressing the rat orexin-1 receptor or the human orexin-2 receptor, are grown in Iscove's modified DMEM containing 2 mM L-glutamine, […], 1% hypoxanthine-thymidine supplement, 100 U/ml penicillin, 100 µg/ml streptomycin and 10% heat-inactivated fetal calf serum (FCS). The cells are seeded at 20,000 cells/well into Becton-Dickinson black 384-well clear bottom sterile plates coated with poly-D-lysine. All reagents were from GIBCO-Invitrogen Corp. The seeded plates are incubated overnight at 37° C. and 5% CO2. Ala-6,12 human orexin-A as the agonist is prepared as a 1 mM stock solution in 1% bovine serum albumin (BSA) and diluted in assay buffer (HBSS containing 20 mM HEPES, 0.1% BSA and 2.5 mM probenecid, pH7.4) for use in the assay at a final concentration of 70 pM. Test compounds are prepared as 10 mM stock solution in DMSO, then diluted in 384-well plates, first in DMSO, then assay buffer. On the day of the assay, cells are washed 3 times with 100 μl assay buffer and then incubated for 60 min (37° C., 5% CO2) in 60 μl assay buffer containing 1 μM Fluo-4AM ester, 0.02% pluronic acid, and 1% BSA. The dye loading solution is then aspirated and cells are washed 3 times with 100 μl assay buffer. 30 μl of that same buffer is left in each well. Within the Fluorescent Imaging Plate Reader (FLIPR, Molecular Devices), test compounds are added to the plate in a volume of 25 μl, incubated for 5 min and finally 25 μl of agonist is added. Fluorescence is measured for each well at 1 second intervals for 5 minutes and the height of each fluorescence peak is compared to the height of the fluorescence peak induced by 70 pM Ala-6,12 orexin-A with buffer in place of antagonist. For each antagonist, IC50 value (the concentration of compound needed to inhibit 50% of the agonist response) is determined. Alternatively, compound potency can be assessed by a radioligand binding assay (described in Bergman et. al. Bioorg. Med. Chem. Lett. 2008, 18, 1425-1430) in which the inhibition constant (Ki) is determined in membranes prepared from CHO cells expressing either the OX1 or OX2 receptor. The intrinsic orexin receptor antagonist activity of a compound which may be used in the present invention may be determined by these assays.

[2] = target: hOX1R (Homo sapiens, UniProt O43613); experiment: FLIPR Ca2+ Flux Assay, orexin-1 receptor; type: cell-based; settings: CHO cells expressing the receptor; agonist 70 pM Ala-6,12 orexin-A

Chain of human orexin-2 receptor (O43614 whole entry): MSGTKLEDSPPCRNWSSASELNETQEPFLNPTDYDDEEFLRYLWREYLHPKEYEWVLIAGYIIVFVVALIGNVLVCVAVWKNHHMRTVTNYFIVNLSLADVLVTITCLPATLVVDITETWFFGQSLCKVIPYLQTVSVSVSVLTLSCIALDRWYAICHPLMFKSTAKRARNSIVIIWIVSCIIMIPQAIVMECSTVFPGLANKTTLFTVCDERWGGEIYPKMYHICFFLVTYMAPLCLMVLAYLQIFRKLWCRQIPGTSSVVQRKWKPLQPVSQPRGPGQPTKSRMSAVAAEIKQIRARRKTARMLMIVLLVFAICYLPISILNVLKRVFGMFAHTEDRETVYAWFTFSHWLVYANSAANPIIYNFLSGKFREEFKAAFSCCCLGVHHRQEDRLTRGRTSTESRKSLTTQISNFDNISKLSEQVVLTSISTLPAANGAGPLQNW

| SMILES | IC50 [1] | IC50 [2] |
| --- | --- | --- |
| COC(=O)c1ccnc(O[C@@H]2CC[C@@H](C)N(C(=O)c3ccccc3-n3nccn3)C2)c1 [Example 1, Methyl 2-{[(3R,6R)-6-methyl-1-{[2-(2H-1,2,3-triazol-2-yl)phenyl]carbonyl}piperidin-3-yl]oxy}pyridine-4-carboxylate] | 26 nM | 1400 nM |
| COC(=O)c1cc(O[C@@H]2CC[C@@H](C)N(C(=O)c3ccccc3-n3nccn3)C2)ncc1C(F)(F)F [Example 3, methyl 2-{[(3R,6R)-6-methyl-1-{[2-(2H-1,2,3-triazol-2-yl)phenyl]-carbonyl}piperidin-3-yl]oxy}-5-(trifluoro-methyl)pyridine-4-carboxylate] | 57 nM | 28 nM |
| COC(=O)c1cc(O[C@@H]2CC[C@@H](C)N(C(=O)c3ccccc3-n3nccn3)C2)ncc1Br [Example 4, methyl 5-bromo-2-{[(3R,6R)-6-methyl-1-{[2-(2H-1,2,3-triazol-2-yl)phenyl]carbon-yl}piperidin-3-yl]oxy}pyridine-4-carboxylate] | 60 nM | 28.9 nM |
| COC(=O)c1ccnc(O[C@@H]2CC[C@@H](C)N(C(=O)c3ccccc3-n3nccn3)C2)c1Cl [Example 5, Methyl 3-chloro-2-{[(3R,6R)-6-methyl-1-{[2-(2H-1,2,3-triazol-2-yl)phenyl]carbonyl}piperidin-3-yl]oxy}pyridine-4-carboxylate] | 11 nM | 953 nM |
| COC(=O)c1ccnc(O[C@@H]2CC[C@@H](C)N(C(=O)c3ccccc3-n3nccn3)C2)c1C(=O)OC [Example 6, dimethyl 2-{[(3R,6R)-6-methyl-1-{[2-(2H-1,2,3-triazol-2-yl)phenyl]-carbonyl}-piperidin-3-yl]oxy}pyridine-3,4-dicarboxylate] | 30.8 nM | 526 nM |
| COC(=O)c1cc(C)nc(O[C@@H]2CC[C@@H](C)N(C(=O)c3ccccc3-n3nccn3)C2)c1 [Example 7, methyl 2-methyl-6-{[(3R,6R)-6-methyl-1-{[2-(2H-1,2,3-triazol-2-yl)phenyl]carbonyl}piperidin-3-yl]oxy}pyridine-4-carboxylate] | 82.6 nM | 1470 nM |
| COC(=O)c1ccnc(O[C@@H]2CC[C@@H](C)N(C(=O)c3ccccc3-n3nccn3)C2)c1F [Example 8, methyl 3-fluoro-2-{[(3R,6R)-6-methyl-1-{[2-(2H-1,2,3-triazol-2-yl)phenyl]carbonyl}piperidin-3-yl]oxy}pyridine-4-carboxylate] | 24.9 nM | 1690 nM |
| COC(=O)c1ccnc(O[C@@H]2CC[C@@H](C)N(C(=O)c3ccc(OC)nc3-n3nccn3)C2)c1 [Example 9, methyl 2-{[(3R,6R)-1-{[6-methoxy-2-(2H-1,2,3-triazol-2-yl)pyridin-3-yl]carbonyl}-6-methylpiperidin-3-yl]oxy}pyridine-4-carboxylate] | 406 nM | 10000 nM |
| COC(=O)c1cc(O[C@@H]2CC[C@@H](C)N(C(=O)c3ccccc3-n3nccn3)C2)ncc1OC [Example 10, Methyl 5-methoxy-2-{[(3R,6R)-6-methyl-1-{[2-(2H-1,2,3-triazol-2-yl)phenyl]carbonyl}piperidin-3-yl]oxy}pyridine-4-carboxylate] | 96 nM | 597 nM |
| COC(=O)c1cc(O[C@@H]2CC[C@@H](C)N(C(=O)c3ccccc3-n3nccn3)C2)ncc1C [Example 11, Methyl 5-methyl-2-{[(3R,6R)-6-methyl-1-{[2-(2H-1,2,3-triazol-2-yl)phenyl]carbonyl}piperidin-3-yl]oxy}pyridine-4-carboxylate] | 11 nM | 31 nM |
| COC(=O)c1ccnc(O[C@@H]2CC[C@@H](C)N(C(=O)c3ccc(OC)nc3-c3ncccn3)C2)c1 [Example 12, Methyl 2-({(3R,6R)-1-[(6-methoxy-2-pyrimidin-2-ylpyridin-3-yl)carbonyl]-6-methylpiperidin-3-yl}oxy)pyridine-4-carboxylate] | 2110 nM | 10000 nM |
